Measured values reported in patent US4181574A, “Production of antibiotics by fermentation of novel strains of Micropolyspora caesia” (priority 1978, dated 1980).
Values after ≈ are worked out from the molar mass of the structure shown. Structures can show the parent of a compound that is named as a salt. Where two headings read alike, the source gives them in different places.

Experiments:
B. fragilis A20926 = experiment: Localized infection with B. fragilis in mice; format: in vivo
[1] = tested on: Neisseria meninigitidis A20049; experiment: MIC, serial two-fold agar dilution, aerobic bacteria; format: cell-based
bacterial RNA polymerase = details: Antimicrobial Agents and Chemotherapy 1976, page 618; cited from earlier work
[2] = tested on: Neisseria meninigitidis A21496; experiment: MIC, serial two-fold agar dilution, aerobic bacteria; format: cell-based; details: Nm-4, medium B: GC medium (Eiken)
[3] = tested on: Escherichia coli K-12 A9632; experiment: as above; details: K12A9632
aerobic bacteria = experiment: antibacterial activity against aerobic bacteria; format: cell-based; details: for activity against usual aerobic organisms: E. coli and K. pneumoniae; for susceptibility of Bacillus species, streptococci, Neisseria meningitidis, N. gonorrhoeae and Hemophilus influenzae: in vitro
[4] = tested on: two anaerobic and one aerobic organisms; experiment: Bactericidal activity; format: cell-based
Solubility = format: physicochemical; details: lower alcohols, ethyl acetate, chloroform and benzene
[5] = tested on: C. perfringens or S. pyogenes; format: in vivo, mice
[6] = tested on: various aerobic and anaerobic organisms; experiment: Antibacterial spectrum; details: variety of anaerobic bacteria and some aerobic bacteria
[7] = Stability in acidic and alkaline solution; format: physicochemical; details: for stability in alkaline solution: relative to acidic
[8] = subcutaneous and oral
[9] = tested on: Klebsiella pneumoniae A9678; experiment: MIC, serial two-fold agar dilution, aerobic bacteria; format: cell-based; details: Kp-2; medium A: Nutrient agar (Eiken)
B. fragilis A20928-1 = experiment: Inoculum size effect on MIC; format: cell-based; details: Bacteroides fragilis, A209281, read-out: MIC in GAM broth, GAM broth; inoculum […] 10^6 cell/ml
S. pyogenes A20201 = experiment: Systemic infection with S. pyogenes in mice; format: in vivo; details: po; 5 days
C. perfringens A9635 = format: in vivo, mice; details: po; 5 days
[10] = Nm-2, medium B: GC medium (Eiken), read-out: MIC

Structure (SMILES) | mean score (B. fragilis A20926; oral, 6.3 × 5 mg/kg) | sum of score (B. fragilis A20926; oral, 6.3 × 5 mg/kg) | mean score (B. fragilis A20926; oral, 25 × 5 mg/kg) | sum of score (B. fragilis A20926; oral, 25 × 5 mg/kg) | sum of score (B. fragilis A20926; oral, 100 × 5 mg/kg) | mean score (B. fragilis A20926; oral, […] 5 mg/kg) | sum of score (B. fragilis A20926; oral, […] 5 mg/kg) | mean score (B. fragilis A20926; subcutaneous, 0.8 × 5 mg/kg) | sum of score (B. fragilis A20926; subcutaneous, 0.8 × 5 mg/kg) | mean score (B. fragilis A20926; subcutaneous, 3.1 × 5 mg/kg) | sum of score (B. fragilis A20926; subcutaneous, 3.1 × 5 mg/kg) | mean score (B. fragilis A20926; subcutaneous, 50 × 5 mg/kg) | sum of score (B. fragilis A20926; subcutaneous, 50 × 5 mg/kg) | mean score (B. fragilis A20926; subcutaneous, […] 5 mg/kg) | sum of score (B. fragilis A20926; subcutaneous, […] 5 mg/kg) | MIC [2] [µg/mL] | also measured
CCC[C@@H]1C[C@@H](C(=O)N[C@@H]([C@H]2O[C@H](SC)[C@H](O)[C@@H](O)[C@H]2O)[C@H](C)Cl)N(C)C1 [Clindamycin] | 2.6 | 13 | 1.8 | 9 | 2 | 4.0 | 20 | 4.0 | 20 | 2.0 | 10 | 0.8 | 4 | 1.4 | 7 | – | MIC [1]: 0.05 µg/mL (≈ 0.118 µM)
CC(/C=C/C(=O)C1=C(O)CNC1=O)=C\C(C)C1OC2(C)OC(C(=O)C3OC32C)C1C (centres unmarked) [Tirandamycin] | – | – | – | – | – | – | – | – | – | – | – | – | – | – | – | 0.8 (≈ 1.92 µM) | MIC [1, 10]: 0.8 µg/mL (≈ 1.92 µM); inhibition of bacterial RNA polymerase (bacterial RNA polymerase): inhibitor of bacterial RNA polymerase; MIC [3]: 100 µg/mL (≈ 240 µM)
COC(=O)C1C(C)OC2(C)CC(=O)C3OC12OC(C(C)/C=C(C)/C=C/C(=O)C1=C(O)CNC1=O)C3C (centres unmarked) [Bu-2313B] | – | – | – | – | – | – | – | – | – | – | – | – | – | – | – | 1.6 (≈ 3.18 µM) | MIC [1, 10]: 0.8 µg/mL (≈ 1.59 µM); activity against usual aerobic organisms (aerobic bacteria): only moderate to weak activity; susceptibility of Bacillus species, streptococci, Neisseria meningitidis, N. gonorrhoeae and Hemophilus influenzae (aerobic bacteria): susceptible; type of antibacterial action [4]: bacteriostatic rather than bactericidal; solubility in most organic solvents (Solubility): readily soluble; protection against systemic infections ([5]; both subcutaneous and oral administration): fairly good protection; antibacterial activity [6]: exhibit antibacterial activity; stability in acidic solution [7]: stable; stability in alkaline solution [7]: less so
COC(=O)C1C(C)OC2(C)CC(=O)C3OC12OC(C(C)/C=C(C)/C=C/C(=O)C1=C(O)CNC1=O)C3C (centres unmarked) [Bu-2313B (Na salt)] | 3.4 | 17 | 3.0 | 15 | 12 | 4.0 | 20 | 4.0 | 20 | 3.4 | 17 | 2.2 | 11 | 2.8 | 14 | – | mean score (B. fragilis A20926; oral, 100 × 5 mg/kg): 2.4
Cc1ncc([N+](=O)[O-])n1CCO [Flagyl] | 3.4 | 17 | 2.6 | 13 | 8 | 4.0 | 20 | 4.0 | 20 | 3.4 | 17 | 2.0 | 10 | 2.4 | 12 | – | mean score (B. fragilis A20926; oral, 100 × 5 mg/kg): 1.6; absorption relative to Bu-2313B [8]: better absorptions than Bu-2313B
CNC(=O)C(C)C1C(O)=C(C(=O)/C=C/C(C)=C/C(C)C2OC3(C)OC(C=CC34CO4)C2C)C(=O)N1C1CCC(O)C(C)O1 (centres unmarked) [streptolydigin] | – | – | – | – | – | – | – | – | – | – | – | – | – | – | – | – | inhibition of bacterial RNA polymerase (bacterial RNA polymerase): inhibitor of bacterial RNA polymerase in a manner similar to streptolydigin
COC(=O)C1C(C)OC2(C)CC(=O)C3OC12OC(C(C)/C=C(C)/C=C/C(=O)C1=C(O)CN(C)C1=O)C3C (centres unmarked) [Bu-2313A] | – | – | – | – | – | – | – | – | – | – | – | – | – | – | – | 3.1 (≈ 5.99 µM) | activity against usual aerobic organisms (aerobic bacteria): only moderate to weak activity; susceptibility of Bacillus species, streptococci, Neisseria meningitidis, N. gonorrhoeae and Hemophilus influenzae (aerobic bacteria): susceptible; type of antibacterial action [4]: bacteriostatic rather than bactericidal; MIC [9]: > meningitidis; solubility in most organic solvents (Solubility): readily soluble; MIC (B. fragilis A20928-1): 6 ng/mL (≈ 0.0116 µM); PD50 (S. pyogenes A20201): NA at 25; PD50 (C. perfringens A9635): NA at 50; activity by the oral route ([5]; oral): inactive; antibacterial activity [6]: exhibit antibacterial activity; stability in acidic solution [7]: stable; stability in alkaline solution [7]: less so
